Measured values taken from patent publication EP4603105A1, “PHARMACEUTICAL COMPOSITION CONTAINING CYCLIC COMPOUND HAVING SELECTIVE KRAS INHIBITORY EFFECT AGAINST HRAS AND NRAS” (CHUGAI SEIYAKU KABUSHIKI KAISHA, priority 2022, dated 2024).
*1 amine or outer side, *2 acyl side, *3 side chain or, on linkers, in order; H or OH if unused. Where a SMILES comes first, the peptide text is derived from it. Bridges are numbered along the chain shown (N, C = ends). [ ]: non-standard residue; d: D form. The star is where a group is joined. hPhe(3-Cl-4-CF3) = N[C@@H](CCc1ccc(C(F)(F)F)c(Cl)c1)C(=O)O; NPrPhe(4-CF3) = CCCN[C@@H](Cc1ccc(C(F)(F)F)cc1)C(=O)O; X49 = Cc1ccc(C[C@@H](C(=O)[*:2])N(CC2CC2)[*:1])cc1; X13 = CCCN([C@@H](COC1CCC1)C(=O)[*:2])[*:1]; NMeGly(cPent) = CN[C@H](C(=O)O)C1CCCC1; Pro(4,4-F2) = O=C(O)[C@@H]1CC(F)(F)CN1; NMeD = CN[C@@H](CC(=O)O)C(=O)O; NMeL = CN[C@@H](CC(C)C)C(=O)O; Azetidin(1-yl) = C1CN(*)C1; Morpholide = C1CN(*)CCO1; NMeA = CN[C@@H](C)C(=O)O; Ac5c = NC1(C(=O)O)CCCC1; Aze = O=C(O)[C@@H]1CCN1; Ac4c = NC1(C(=O)O)CCC1; Sar = CNCC(=O)O

Tests used:
HRAS wild-type protein = HRAS wild-type protein (Homo sapiens, UniProt P01112); test: Binding to HRAS by surface plasmon resonance (SPR), KD and KD ratio to KRAS
HRAS wild-type protein, sequence (P01112 whole entry): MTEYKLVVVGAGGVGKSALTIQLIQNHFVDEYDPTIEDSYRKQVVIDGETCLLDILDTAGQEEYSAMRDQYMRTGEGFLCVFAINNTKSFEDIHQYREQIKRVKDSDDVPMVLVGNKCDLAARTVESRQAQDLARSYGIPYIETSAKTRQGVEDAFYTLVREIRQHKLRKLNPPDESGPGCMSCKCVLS
How it was run: (§1)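 Biotinylated GDP-bound RAS was captured at about 100–300 RU. Running buffer: HBS pH 7.4, 10 mM MgCl2, 10 µM GDP, 1 mM DTT, 0.01% Tween 20, 4% DMSO.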

[1] = test system: human lung cancer strain NCI-H441; type: cell-based
How it was run: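 Step one: dispense the test compound in serial DMSO dilutions. Step three: add the reagent and measure […].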

[2] = target: GDP-bound NRAS wild-type protein (Homo sapiens, UniProt P01111); test: Binding to NRAS by surface plasmon resonance (SPR), KD and KD ratio to KRAS
GDP-bound NRAS wild-type protein, sequence (P01111 whole entry): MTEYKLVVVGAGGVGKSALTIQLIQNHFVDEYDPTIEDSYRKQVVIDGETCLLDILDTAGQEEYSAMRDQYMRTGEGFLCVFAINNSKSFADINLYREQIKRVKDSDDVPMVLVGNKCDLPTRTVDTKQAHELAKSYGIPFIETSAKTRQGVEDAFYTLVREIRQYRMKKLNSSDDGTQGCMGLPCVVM
How it was run: as §1

[3] = ratio of the KD value with respect to HRAS wild-type protein to the KD value with respect to KRAS
[4] = ratio of the KD value with respect to GDP-bound NRAS wild-type protein to the KD value with respect to KRAS
[5] = ratio of KD value for HRAS wild-type protein to KD value for KRAS (SPR)
[6] = ratio of KD value for GDP-bound NRAS wild-type protein to KD value for KRAS (SPR)
[7] = ratio of KD for HRAS wild-type protein to KD for KRAS
[8] = ratio of KD for GDP-bound NRAS wild-type protein to KD for KRAS

Row | Compound | HRAS /KRAS (HRAS wild-type protein; [3]) | IC50 [1] [nM] | NRAS /KRAS [2, 4] | HRAS /KRAS (HRAS wild-type protein; [5]) | NRAS /KRAS [2, 6] | HRAS /KRAS (HRAS wild-type protein; [7]) | NRAS /KRAS [2, 8]
1 | CCCN(C)C(=O)[C@@H]1CC(=O)N(C)[C@@H](CC(C)C)C(=O)N[C@@H](C2CCOCC2)C(=O)N(C)CC(=O)N(C)[C@H]2C/C=C\CCN(C2=O)[C@@H](Cc2ccc(C(F)(F)F)cc2)C(=O)N(C)CC(=O)N[C@@H](CCc2cc(F)c(C(F)(F)F)c(F)c2)C(=O)N2C[C@H](OCC)C[C@H]2C(=O)NC2(CC(C)(C)C2)C(=O)N(C)[C@@H](C2CCCC2)C(=O)N1C [PP1923] | A (a compound having 10 or more and less than 20 is denoted as A) | 68 | A (a compound having 10 or more and less than 20 is denoted as A) | – | – | – | –
2 | CCCN1C(=O)[C@@H]2CCN2C(=O)[C@H](C)N(C)C(=O)[C@H]([C@@H](C)CC)NC(=O)[C@H](CC(C)C)N(C)C(=O)C[C@@H](C(=O)N2CCOCC2)N(C)C(=O)[C@H](C2CCCC2)N(C)C(=O)C2(CCC2)NC(=O)[C@@H]2CCCN2C(=O)[C@H](CCc2ccc(C(F)(F)F)c(Cl)c2)NC(=O)CN(C)C(=O)[C@@H]1COC1CCC1 [PP1818] ([NMeL]I[NMeA][Aze][X13][Sar][hPhe(3-Cl-4-CF3)]P[Ac4c][NMeGly(cPent)][NMeD]-Morpholide; lactam N-11) | – | 74.8 | – | B (a compound having 3 or more and less than 10 is denoted as B) | C (A compound having a KD ratio of 0.1 or more and less than 3 is denoted as C) | – | –
3 | CCO[C@@H]1C[C@H]2C(=O)NC3(CCC3)C(=O)N(C)[C@@H](C3CCCC3)C(=O)N(C)[C@H](C(=O)N(C)C)CC(=O)N(C)[C@@H](CC3CCCC3)C(=O)N[C@@H]([C@@H](C)CC)C(=O)N(C)CC(=O)N(C)[C@H]3C/C=C\CCN(C3=O)[C@@H](Cc3ccc(C)cc3)C(=O)N(C)CC(=O)N[C@@H](CCc3cc(C)c(C(F)F)c(F)c3)C(=O)N2C1 [PP2676] | – | 60.8 | – | – | – | A (a compound having 10 or more and less than 20 is denoted as A) | A (a compound having 10 or more and less than 20 is denoted as A)
4 | CC[C@H](C)[C@@H]1NC(=O)[C@H](CC(C)C)N(C)C(=O)C[C@@H](C(=O)N2CCOCC2)N(CC)C(=O)[C@H](C2CCCC2)N(C)C(=O)C2(CCCC2)NC(=O)[C@@H]2CCCN2C(=O)[C@H](CCc2cc(F)c(C(F)(F)F)c(F)c2)NC(=O)CN(C)C(=O)[C@H](Cc2ccc(C(F)(F)F)cc2)N2CCCC[C@@H](C2=O)N(C)C(=O)CN(C)C1=O [PP0539] | B (a compound having 3 or more and less than 10 is denoted as B) | 6.3 | B (a compound having 3 or more and less than 10 is denoted as B) | – | – | – | –
5 | CC[C@H](C)[C@@H]1NC(=O)[C@H](CC(C)C)N(C)C(=O)C[C@@H](C(=O)N2CCOCC2)N(C)C(=O)[C@H](C2CCCC2)N(C)C(=O)C2(CCCC2)NC(=O)[C@@H]2CCCN2C(=O)[C@H](CCc2ccc(C(F)(F)F)c(Cl)c2)NC(=O)CN(C)C(=O)[C@H](Cc2ccc(C)cc2)N(CC2CC2)C(=O)[C@@H]2CCN2C(=O)[C@H](C)N(C)C1=O [PP0057] ([NMeL]I[NMeA][Aze][X49][Sar][hPhe(3-Cl-4-CF3)]P[Ac5c][NMeGly(cPent)][NMeD]-Morpholide; lactam N-11) | – | 6.2 | – | – | – | B (a compound having 3 or more and less than 10 is denoted as B) | C (A compound having a KD ratio of 0.1 or more and less than 3 is denoted as C)
6 | CCCN1C(=O)CN(C)C(=O)CN(C)C(=O)[C@H]([C@@H](C)CC)NC(=O)[C@H](CC(C)C)N(C)C(=O)C[C@@H](C(=O)N2CCC2)N(C)C(=O)[C@H](C2CCCC2)N(C)C(=O)C2(CCCC2)NC(=O)[C@@H]2CCCN2C(=O)[C@H](CCc2ccc(C(F)(F)F)c(Cl)c2)NC(=O)CN(C)C(=O)[C@@H]1Cc1ccc(C(F)(F)F)cc1 [PP0172] ([NMeL]I[Sar][Sar][NPrPhe(4-CF3)][Sar][hPhe(3-Cl-4-CF3)]P[Ac5c][NMeGly(cPent)][NMeD]-{Azetidin(1-yl)}; lactam N-11) | – | 3.8 | – | – | – | C (A compound having a KD ratio of 0.1 or more and less than 3 is denoted as C) | B (a compound having 3 or more and less than 10 is denoted as B)
7 | CCC[C@H]1C(=O)N[C@@H]([C@@H](C)CC)C(=O)N2CCC[C@H]2C(=O)N(C)[C@H]2C/C=C\CCN(C2=O)[C@@H](Cc2ccc(C)cc2)C(=O)N(C)CC(=O)N[C@@H](CCc2cc(F)c(C(F)(F)F)c(F)c2)C(=O)N2C[C@H](OCC)C[C@H]2C(=O)N(C)C2(CCC2)C(=O)N(C)[C@@H](C2CCCC2)C(=O)N(C)[C@H](C(=O)N2CCCC2)CC(=O)N1C [PP3117] | – | 2.6 | – | – | – | A (a compound having 10 or more and less than 20 is denoted as A) | A (a compound having 10 or more and less than 20 is denoted as A)
8 | CCCN1C(=O)[C@@H]2CCN2C(=O)CN(C)C(=O)[C@H]([C@@H](C)CC)NC(=O)[C@H](CC(C)C)N(C)C(=O)C[C@@H](C(=O)N2CCOCC2)NC(=O)[C@H](C2CCCC2)N(C)C(=O)C2(CCC2)NC(=O)[C@@H]2CCCN2C(=O)[C@H](CCc2ccc(C(F)(F)F)c(Cl)c2)NC(=O)CN(C)C(=O)[C@@H]1Cc1ccc(C(F)(F)F)cc1 [PP0350] ([NMeL]I[Sar][Aze][NPrPhe(4-CF3)][Sar][hPhe(3-Cl-4-CF3)]P[Ac4c][NMeGly(cPent)]D-Morpholide; lactam N-11) | – | 69.8 | – | – | – | B (a compound having 3 or more and less than 10 is denoted as B) | C (A compound having a KD ratio of 0.1 or more and less than 3 is denoted as C)
9 | CCCN1C(=O)CN(C)C(=O)CNC(=O)[C@H]([C@@H](C)CC)NC(=O)[C@H](CC(C)C)N(C)C(=O)C[C@@H](C(=O)N2CCOCC2)NC(=O)[C@H](C2CCCC2)N(C)C(=O)C2(CCCC2)NC(=O)[C@@H]2CC(F)(F)CN2C(=O)[C@H](CCc2ccc(C(F)(F)F)c(Cl)c2)NC(=O)CN(C)C(=O)[C@@H]1Cc1ccc(C(F)(F)F)cc1 [PP0327] ([NMeL]IG[Sar][NPrPhe(4-CF3)][Sar][hPhe(3-Cl-4-CF3)][Pro(4,4-F2)][Ac5c][NMeGly(cPent)]D-Morpholide; lactam N-11) | – | 162 | – | – | – | B (a compound having 3 or more and less than 10 is denoted as B) | B (a compound having 3 or more and less than 10 is denoted as B)
10 | CCO[C@@H]1C[C@H]2C(=O)NC3(CCC3)C(=O)N(C)[C@@H](C3CCCC3)C(=O)N(C)[C@H](C(=O)N(C)C)CC(=O)N(C)[C@@H](CC)C(=O)N[C@@H]([C@@H](C)CC)C(=O)N3CC[C@H]3C(=O)N(C)[C@H]3CC(C)=CCN(C3=O)[C@@H](Cc3ccc(C(F)(F)F)cc3)C(=O)N(C)CC(=O)N[C@@H](CCc3cc(F)c(C(F)(F)F)c(F)c3)C(=O)N2C1 [PP1035] | – | 128 | – | – | – | C (A compound having a KD ratio of 0.1 or more and less than 3 is denoted as C) | C (A compound having a KD ratio of 0.1 or more and less than 3 is denoted as C)
11 | CCO[C@@H]1C[C@H]2C(=O)NC3(CCC3)C(=O)N(C)[C@@H](C3CCCC3)C(=O)N(CCc3ccccc3)[C@H](C(=O)N(C)C)CC(=O)N(C)[C@@H](CC)C(=O)N[C@@H]([C@@H](C)CC)C(=O)N(C)CC(=O)N(C)[C@H]3CCCCCN(C3=O)[C@@H](Cc3ccc(C(F)(F)F)cc3)C(=O)N(C)CC(=O)N[C@@H](CCc3cc(F)c(C(F)(F)F)c(F)c3)C(=O)N2C1 [PP0637] | B (a compound having 3 or more and less than 10 is denoted as B) | 952 | B (a compound having 3 or more and less than 10 is denoted as B) | – | – | – | –
12 | CCCN(C)C(=O)[C@@H]1CC(=O)N(C)[C@@H](COC)C(=O)N[C@@H]([C@@H](C)CC)C(=O)N(C)CC(=O)N(C)[C@H]2C/C=C\CCN(C2=O)[C@@H](Cc2ccc(C(F)(F)F)cc2)C(=O)N(C)CC(=O)N[C@@H](CCc2ccc(C(F)(F)F)c(OC)c2)C(=O)N2C[C@H](OCC)C[C@H]2C(=O)NC2(CC(C)(C)C2)C(=O)N(C)[C@@H](C2CCCC2)C(=O)N1C [PP1656] | – | 1.5 | – | A (a compound having 10 or more and less than 20 is denoted as A) | AA (a compound having 20 or more is denoted as AA) | – | –
13 | CC[C@H](C)[C@@H]1NC(=O)[C@H](CC(C)C)N(C)C(=O)C[C@@H](C(=O)N2CCOCC2)N(CC)C(=O)[C@H](C2CCCC2)N(C)C(=O)C2(CCC2)NC(=O)[C@@H]2[C@H](O)CCN2C(=O)[C@H](CCc2cc(F)c(C(F)(F)F)c(F)c2)NC(=O)CN(C)C(=O)[C@H](Cc2ccc(C(F)(F)F)cc2)N2CCCCC[C@@H](C2=O)N(C)C(=O)CN(C)C1=O [PP0955] | – | 6480 | – | – | – | A (a compound having 10 or more and less than 20 is denoted as A) | A (a compound having 10 or more and less than 20 is denoted as A)
14 | CCCN(C)C(=O)[C@@H]1CC(=O)N(C)[C@@H](COCC)C(=O)N[C@@H]([C@@H](C)CC)C(=O)N(C)CC(=O)N(C)[C@H]2C/C=C\CCN(C2=O)[C@@H](Cc2ccc(C(F)(F)F)cc2)C(=O)N(C)CC(=O)N[C@@H](CCc2ccc(C(F)(F)F)c(OC)c2)C(=O)N2C[C@H](OCC)C[C@H]2C(=O)NC2(CCC2)C(=O)N(C)[C@@H](C2CCCC2)C(=O)N1C [PP2015] | B (a compound having 3 or more and less than 10 is denoted as B) | 5.6 | A (a compound having 10 or more and less than 20 is denoted as A) | – | – | – | –
15 | CCO[C@@H]1C[C@H]2C(=O)NC3(CC(C)(C)C3)C(=O)N(C)[C@@H](C3CCCC3)C(=O)N(C)[C@H](C(=O)N(C)C)CC(=O)N(C)[C@@H](CC(F)(F)F)C(=O)N[C@@H]([C@@H](C)CC)C(=O)N(C)CC(=O)N(C)[C@H]3C/C=C\CCN(C3=O)[C@@H](Cc3ccc(C(F)(F)F)cc3)C(=O)N(C)CC(=O)N[C@@H](CCc3ccc(Cl)c(Cl)c3)C(=O)N2C1 [PP2832] | – | 4.8 | – | – | – | A (a compound having 10 or more and less than 20 is denoted as A) | A (a compound having 10 or more and less than 20 is denoted as A)
